Results as given in the NIST ThermoML archive (doi:10.1016/j.jct.2009.05.004).
± gives the expanded uncertainty stated by the source.

Assay: mn = molality of the nth substance listed, in mol/kg
Conditions: Liquid, Vibrating tube method

[Br-].[Br-].[Zn+2] [zinc bromide] + CCO
Conditions | mass density [kg/m3]
293.13 K, 1123 kPa, m1 = 0.4384 | 858.07 ± 0.62
293.13 K, 1223 kPa, m1 = 0.9305 | 929.75 ± 0.62
293.13 K, 5128 kPa, m1 = 0.4384 | 861.43 ± 0.63
293.13 K, 9704 kPa, m1 = 0.4384 | 865.15 ± 0.63
293.13 K, 9924 kPa, m1 = 0.9305 | 937.03 ± 0.62
293.14 K, 1141 kPa, m1 = 1.887 | 1060.17 ± 0.62
293.14 K, 4877 kPa, m1 = 0.9305 | 932.86 ± 0.62
293.14 K, 5033 kPa, m1 = 1.887 | 1063.5 ± 0.62
293.14 K, 5064 kPa, m1 = 0.3043 | 841.35 ± 0.63
293.14 K, 9847 kPa, m1 = 1.887 | 1067.49 ± 0.62
293.14 K, 10023 kPa, m1 = 0.05681 | 807.27 ± 0.64
293.14 K, 14682 kPa, m1 = 0.4384 | 869.05 ± 0.63
293.14 K, 14840 kPa, m1 = 0.9305 | 940.94 ± 0.62
293.14 K, 14855 kPa, m1 = 1.887 | 1071.5 ± 0.62
293.14 K, 20011 kPa, m1 = 0.9305 | 944.89 ± 0.62
293.14 K, 30124 kPa, m1 = 0.3043 | 860.11 ± 0.66
293.14 K, 34814 kPa, m1 = 0.9305 | 955.31 ± 0.63
293.14 K, 39888 kPa, m1 = 0.9305 | 958.57 ± 0.63
293.14 K, 39952 kPa, m1 = 0.05681 | 828.27 ± 0.7
293.15 K, 1045 kPa, m1 = 0.3043 | 838 ± 0.63
293.15 K, 1235 kPa, m1 = 0.05681 | 800.05 ± 0.63
293.15 K, 1523 kPa, m1 = 1.49 | 1007.63 ± 0.62
293.15 K, 5024 kPa, m1 = 0.05681 | 803.22 ± 0.64
293.15 K, 5032 kPa, m1 = 1.49 | 1010.62 ± 0.62
293.15 K, 10123 kPa, m1 = 0.3043 | 845.43 ± 0.63
293.15 K, 10214 kPa, m1 = 1.49 | 1014.92 ± 0.62
293.15 K, 15624 kPa, m1 = 0.05681 | 811.63 ± 0.65
293.15 K, 15624 kPa, m1 = 1.49 | 1019.23 ± 0.62
293.15 K, 19877 kPa, m1 = 0.4384 | 872.96 ± 0.64
293.15 K, 19914 kPa, m1 = 1.887 | 1075.41 ± 0.62
293.15 K, 20035 kPa, m1 = 1.49 | 1022.63 ± 0.62
293.15 K, 20124 kPa, m1 = 0.3043 | 853.06 ± 0.65
293.15 K, 24809 kPa, m1 = 0.4384 | 876.51 ± 0.64
293.15 K, 25007 kPa, m1 = 0.9305 | 948.56 ± 0.62
293.15 K, 25014 kPa, m1 = 1.49 | 1026.32 ± 0.62
293.15 K, 25232 kPa, m1 = 1.887 | 1079.35 ± 0.63
293.15 K, 25412 kPa, m1 = 0.05681 | 818.77 ± 0.67
293.15 K, 29867 kPa, m1 = 0.4384 | 880 ± 0.65
293.15 K, 29915 kPa, m1 = 0.9305 | 952.01 ± 0.62
293.15 K, 29924 kPa, m1 = 1.49 | 1029.82 ± 0.62
293.15 K, 29995 kPa, m1 = 1.887 | 1082.75 ± 0.63
293.15 K, 34624 kPa, m1 = 1.49 | 1033.04 ± 0.62
293.15 K, 34775 kPa, m1 = 0.4384 | 883.24 ± 0.65
293.15 K, 35015 kPa, m1 = 0.05681 | 825.19 ± 0.69
293.15 K, 35078 kPa, m1 = 1.887 | 1086.23 ± 0.64
293.15 K, 35624 kPa, m1 = 0.3043 | 863.74 ± 0.67
293.15 K, 39932 kPa, m1 = 1.49 | 1036.53 ± 0.62
293.16 K, 1293 kPa, m1 = 0.1696 | 817.98 ± 0.63
293.16 K, 5239 kPa, m1 = 0.1696 | 821.27 ± 0.63
293.16 K, 9897 kPa, m1 = 0.1696 | 825.03 ± 0.64
293.16 K, 14684 kPa, m1 = 0.1696 | 828.75 ± 0.64
293.16 K, 15201 kPa, m1 = 0.3043 | 849.37 ± 0.64
293.16 K, 19951 kPa, m1 = 0.1696 | 832.68 ± 0.65
293.16 K, 20035 kPa, m1 = 0.05681 | 814.92 ± 0.66
293.16 K, 30348 kPa, m1 = 0.1696 | 839.91 ± 0.67
293.16 K, 35296 kPa, m1 = 0.1696 | 843.12 ± 0.68
293.16 K, 39385 kPa, m1 = 0.4384 | 886.15 ± 0.66
293.16 K, 39747 kPa, m1 = 1.887 | 1089.29 ± 0.64
293.16 K, 39967 kPa, m1 = 0.1696 | 846 ± 0.69
293.16 K, 39985 kPa, m1 = 0.3043 | 866.49 ± 0.67
293.17 K, 24971 kPa, m1 = 0.1696 | 836.26 ± 0.66
293.17 K, 25845 kPa, m1 = 0.3043 | 857.16 ± 0.65
293.17 K, 30025 kPa, m1 = 0.05681 | 821.93 ± 0.68
298.14 K, 5021 kPa, m1 = 0.9305 | 928.53 ± 0.62
298.14 K, 5024 kPa, m1 = 0.4384 | 857.08 ± 0.63
298.14 K, 5036 kPa, m1 = 0.05681 | 799.14 ± 0.64
298.14 K, 5036 kPa, m1 = 0.1696 | 816.98 ± 0.63
298.14 K, 15024 kPa, m1 = 1.887 | 1066.84 ± 0.62
298.14 K, 15106 kPa, m1 = 0.4384 | 865.31 ± 0.64
298.14 K, 20014 kPa, m1 = 0.3043 | 849.06 ± 0.65
298.14 K, 25032 kPa, m1 = 0.9305 | 944.53 ± 0.62
298.14 K, 25035 kPa, m1 = 0.4384 | 872.78 ± 0.65
298.14 K, 35024 kPa, m1 = 0.05681 | 821.61 ± 0.7
298.14 K, 39921 kPa, m1 = 0.05681 | 824.72 ± 0.71
298.15 K, 1024 kPa, m1 = 0.9305 | 925.02 ± 0.62
298.15 K, 1024 kPa, m1 = 1.887 | 1055.01 ± 0.62
298.15 K, 1025 kPa, m1 = 0.4384 | 853.63 ± 0.62
298.15 K, 1201 kPa, m1 = 0.1696 | 813.7 ± 0.63
298.15 K, 1324 kPa, m1 = 0.05681 | 795.94 ± 0.63
298.15 K, 1324 kPa, m1 = 1.49 | 1002.7 ± 0.62
298.15 K, 1542 kPa, m1 = 0.3043 | 834.12 ± 0.63
298.15 K, 5214 kPa, m1 = 1.49 | 1006.13 ± 0.62
298.15 K, 10024 kPa, m1 = 0.4384 | 861.25 ± 0.63
298.15 K, 10025 kPa, m1 = 0.05681 | 803.29 ± 0.64
298.15 K, 10025 kPa, m1 = 0.1696 | 821.11 ± 0.64
298.15 K, 10025 kPa, m1 = 0.3043 | 841.24 ± 0.63
298.15 K, 10032 kPa, m1 = 0.9305 | 932.79 ± 0.62
298.15 K, 10035 kPa, m1 = 1.49 | 1010.24 ± 0.62
298.15 K, 10035 kPa, m1 = 1.887 | 1062.75 ± 0.62
298.15 K, 15621 kPa, m1 = 1.49 | 1014.82 ± 0.62
298.15 K, 19956 kPa, m1 = 0.05681 | 811.06 ± 0.66
298.15 K, 20004 kPa, m1 = 0.9305 | 940.76 ± 0.62
298.15 K, 20014 kPa, m1 = 0.1696 | 828.87 ± 0.65
298.15 K, 20031 kPa, m1 = 1.887 | 1070.82 ± 0.62
298.15 K, 20035 kPa, m1 = 1.49 | 1018.3 ± 0.62
298.15 K, 25621 kPa, m1 = 0.3043 | 853.17 ± 0.65
298.15 K, 25621 kPa, m1 = 1.49 | 1022.52 ± 0.62
298.15 K, 29914 kPa, m1 = 0.05681 | 818.2 ± 0.68
298.15 K, 29942 kPa, m1 = 1.887 | 1078.29 ± 0.63
298.15 K, 29954 kPa, m1 = 1.49 | 1025.66 ± 0.62
298.15 K, 29986 kPa, m1 = 0.1696 | 835.96 ± 0.67
298.15 K, 30041 kPa, m1 = 0.4384 | 876.29 ± 0.65
298.15 K, 30065 kPa, m1 = 0.9305 | 948.14 ± 0.63
298.15 K, 34625 kPa, m1 = 1.49 | 1028.92 ± 0.62
298.15 K, 34985 kPa, m1 = 0.3043 | 859.62 ± 0.67
298.15 K, 35104 kPa, m1 = 0.4384 | 879.69 ± 0.66
298.15 K, 39924 kPa, m1 = 1.49 | 1032.44 ± 0.62
298.15 K, 39974 kPa, m1 = 1.887 | 1085.32 ± 0.64
298.15 K, 39985 kPa, m1 = 0.4384 | 882.8 ± 0.66
298.15 K, 39985 kPa, m1 = 0.9305 | 954.77 ± 0.63
